Article PMC11650849, “Brain endothelial permeability, transport, and flow assessed over 10 orders of magnitude using the in situ brain perfusion technique” (Fluids and Barriers of the CNS, 2024)
Like-named read-outs stand apart in the source and are kept apart here.

Tests used:
[1] = rat, in vivo
[2] = cited from earlier work
[3] = rat
[4] = cited from earlier work; for Log Poct: octanol partition coefficient
[5] = Neutral fraction at pH 7.4 calculated from pKa; assay type: physicochemical
[6] = for Brain Kin: calculated at brain blood flow […] and rat serum fu; for Extraction (unbound) / Brain vascular extraction (total): calculated at brain blood flow […]; for Extraction (unbound): free drug; for Brain vascular extraction (total): with rat serum fu; for Maximal flow—90% extraction, PcS/2.3: pH 7.4
[7] = In situ rat brain perfusion (brain uptake Kin, extraction E, BBB PS); conditions: for Log Pc: Pc in cm/s; for Log Po: Po in cm/s; for Log PoS: PoS in mL/s/g; for PcS: cerebral cortex, S = physiological saline, AB = artificial blood
[8] = ref Hansch et al. [123], Avdeef [46] or other sources
[9] = neutral fraction at perfusion fluid pH 7.40, calculated from pKa
[10] = facilitated nutrients, transporter not given

OCCCCO [1,4-Butanediol]
Log Pc ([1]; pH 7.4): −3.82
Log PoS ([1]; pH 7.4): −1.82
Pc ([1]; pH 7.4): 151 ×10⁻⁶ cm/s
PcS ([1]; pH 7.4): 0.015 mL/s/g
PoS ([1]; pH 7.4): 0.0151 mL/s/g
Log Po ([1]; pH 7.4): −3.82
Po ([1]; pH 7.4): 0.000151 cm/s
fu,.p ([2]; rat): 1.00
half-life [3]: 1.14 min
Log Doct pH=7.4 [4]: −0.52
fn (%) ([5]; pH 7.4): 100%

Nc1c(O)cccc1C(=O)O [3-hydroxy-anthranilic acid]
Brain Kin [6]: 0.000131 mL/s/g
Extraction (unbound) [6]: 0.54%
Brain vascular extraction (total) [6]: 0.54%
Log Pc ([1]; pH 7.4): −5.88
Log PoS ([1]; pH 7.4): −1.05
Pc ([1]; pH 7.4): 1.31 ×10⁻⁶ cm/s
PcS ([1]; pH 7.4): 0.00013 mL/s/g
PoS ([1]; pH 7.4): 0.0886 mL/s/g
Log Po ([1]; pH 7.4): −3.05
Po ([1]; pH 7.4): 0.000886 cm/s
fu,.p ([2]; rat in vivo measurements): 1.00
Log Poct [4, 8]: 1.05
Log Doct pH=7.4 [4, 8]: −1.78
fn (%) [5, 9]: 0.15%

CC(N)=O [Acetamide]
fn (%) [5, 9]: 100%

Cc1nnc2n1-c1ccc(Cl)cc1C(c1ccccc1)=NC2 [Alprasolam]
fn (%) [5, 9]: 100%

Nc1ccccc1C(=O)O [Anthranilic acid]
fu,.p ([2]; rat in vivo measurements): 0.50
Log Poct [4, 8]: 1.21
Log Doct pH=7.4 [4, 8]: −1.27
fn (%) [5, 9]: 0.33%
Log Pc [7]: −4.92
Log Po [7]: −2.44
Log PoS [7]: −0.44
Pc ([7]; S assumed 100 cm^2/g): 11.9 ×10⁻⁶ cm/s
Po ([7]; S assumed 100 cm^2/g): 3600 ×10⁻⁶ cm/s
PoS ([7]; brain vascular intrinsic PoS): 0.36 mL/s/g
PcS ([7]; flow 0.1–[…]): 0.0012 mL/s/g
PoS ([7]; intrinsic PS of neutral solute, PoS = PcS/fn, flow 0.1–[…]): 0.36 mL/s/g

CCCCO [Butanol]
Brain Kin [6]: 0.0229 mL/s/g
Extraction (unbound) [6]: 99.8%
Brain vascular extraction (total) [6]: 97.5%
Peak flow rate for 90% E ([6]; protein-free physiologic saline pH 7.4): 3.8 mL/min/g
Maximal flow—90% extraction, PcS/2.3 ([6]; protein-free saline): 0.064 mL/s/g
Pc [1]: 1470 ×10⁻⁶ cm/s
PcS [1]: 0.15 mL/s/g
PoS [1]: 0.13 mL/s/g
Po [1]: 0.00127 cm/s
fu,.p ([2]; rat): 0.60
fn (%) [5, 9]: 100%

CN(C)CCCN1c2ccccc2Sc2ccc(Cl)cc21 [Chlorpromazine]
Brain Kin [6]: 0.00885 mL/s/g
Extraction (unbound) [6]: 100%
Brain vascular extraction (total) [6]: 36.6%
Maximal flow—90% extraction, PcS/2.3 ([6]; protein-free saline): 0.13 mL/s/g
BBB PcS ([1]; pH 7.4): 0.31 ± 0.05 mL/s/g
Extraction (Kin/F) ([1]; pH 7.4): 100%
Log Pc ([1]; pH 7.4): −2.51
Log PoS ([1]; pH 7.4): 1.30
Pc ([1]; pH 7.4): 3090 ×10⁻⁶ cm/s
PcS ([1]; pH 7.4): 0.31 mL/s/g
PoS ([1]; pH 7.4): 19.8 mL/s/g
Log Po ([1]; pH 7.4): −0.70
Po ([1]; pH 7.4): 0.20 cm/s
fu,.p ([2]; rat in vivo measurements): 0.0354
half-life ([3]; brain): 61.1 min
fn (%) [5, 9]: 1.42%

C[C@]12CC[C@H](O)CC1=CC[C@@H]1[C@@H]2CC[C@]2(C)C(=O)CC[C@@H]12 [DHEA]
fu,.p ([2]; rat in vivo measurements): 0.05
Log Poct [4, 8]: 3.00
Log Doct pH=7.4 [4, 8]: 3.00
fn (%) [5, 9]: 100%

CN(C)CCOC(c1ccccc1)c1ccccc1 [Diphenhydramine]
fn (%) [5, 9]: 1.96%

CCO [Ethanol]
Brain Kin [6]: 0.0195 mL/s/g
Extraction (unbound) [6]: 83.0%
Brain vascular extraction (total) [6]: 81.4%
fu,.p ([2]; rat): 0.95

CN1C(=O)CN=C(c2ccccc2F)c2cc([N+](=O)[O-])ccc21 [Flunitrazepam]
Best fit PcS ([1]; pH 7.4): 0.14 mL/s/g
fu,.p ([2]; rat in vivo measurements): 0.19
Log Poct [4, 8]: 2.03
Log Doct pH=7.4 [4, 8]: 2.03
fn (%) [5, 9]: 100%

CCCCCCO [Hexanol]
Extraction (unbound) [6]: 99.9%
Brain vascular extraction (total) [6]: 89.1%
fu,.p ([2]; rat in vivo measurements): 0.30
fn (%) [5, 9]: 100%

O=C(O)c1cc(=O)c2ccccc2[nH]1 [Kynurenic acid]
Log Pc ([1]; pH 7.4): −5.92
Log PoS ([1]; pH 7.4): 0.42
PcS ([1]; pH 7.4): 0.00012 mL/s/g
PoS ([1]; pH 7.4): 2.60 mL/s/g
Log Po ([1]; pH 7.4): −1.58
Po ([1]; pH 7.4): 0.026 cm/s
fu,.p ([2]; rat in vivo measurements): 1.00
fn (%) [5, 9]: 4.6E−7%

N[C@@H](CCC(=O)O)C(=O)O [L-Glutamate]
Log PS [7, 10]: −3.82
PS [7, 10]: 0.000151 mL/s/g

CC(=O)N[C@@H](CS)C(=O)O [N-acetyl-cysteine]
Extraction (unbound) [6]: 7.60E-05%
Brain vascular extraction (total) [6]: 7.60E-05%
fu,.p ([2]; rat in vivo measurements): 1.00
Log Doct pH=7.4 [4]: −3.70
Log Pc [7]: −7.74
Log Po [7]: −7.74
Log PoS [7]: −5.74
Pc ([7]; S assumed 100 cm^2/g): 0.0182 ×10⁻⁶ cm/s
PoS ([7]; brain vascular intrinsic PoS): 1.82e-06 mL/s/g
PcS ([7]; flow 0.1–[…]): 1.82e-06 mL/s/g

COc1ccc2cc([C@H](C)C(=O)O)ccc2c1 [Naproxen]
fn (%) [5, 9]: 0.05%

NC(=O)c1cccnc1 [Nicotinamide]
Log Poct [4, 8]: −0.34
Log Doct pH=7.4 [4, 8]: −0.34
fn (%) [5, 9]: 100%

O=C1Nc2ccc(Cl)cc2C(c2ccccc2)=NC1O (stereo not shown) [Oxazepam]
fu,.p ([2]; rat): 0.17
fn (%) [5, 9]: 100%

CCCO [Propanol]
fu,.p ([2]; rat): 0.74
fn (%) [5, 9]: 100%

O=C(O)c1cccnc1C(=O)O [Quinolinic acid]
Brain Kin [6]: 0.00019 mL/s/g
Extraction (unbound) [6]: 0.01%
Brain vascular extraction (total) [6]: 0.0071%
Log Pc ([1]; pH 7.4): −7.77
Log PoS ([1]; pH 7.4): −3.13
Pc ([1]; pH 7.4): 0.017 ×10⁻⁶ cm/s
PcS ([1]; pH 7.4): 1.7e-06 mL/s/g
PoS ([1]; pH 7.4): 0.000743 mL/s/g
Log Po ([1]; pH 7.4): −5.13
Po ([1]; pH 7.4): 7.43e-06 cm/s
fu,.p ([2]; rat in vivo measurements): 1.00
Log Poct [4, 8]: −1.44
Log Doct pH=7.4 [4, 8]: −4.08

CN1C(=O)C(O)N=C(c2ccccc2)c2cc(Cl)ccc21 (stereo not shown) [Temazepam]
fu,.p ([2]; rat): 0.18
fn (%) [5, 9]: 100%

Cn1c(=O)c2[nH]cnc2n(C)c1=O [Theophylline]
half-life ([3]; brain): 4.6 min
Log Poct [4, 8]: 0.00
Log Doct pH=7.4 [4, 8]: 0.00
fn (%) [5, 9]: 100%

CCCCNC(=O)NS(=O)(=O)c1ccc(C)cc1 [Tolbutamide]
half-life ([3]; brain): 3.27 min
fn (%) [5, 9]: 0.61%

Cc1nnc2n1-c1ccc(Cl)cc1C(c1ccccc1Cl)=NC2 [Triasolam]
fn (%) [5, 9]: 100%

NC(N)=O [Urea]
fu,.p ([2]; rat in vivo measurements): 1.00
Log Poct [4, 8]: −1.66
Log Doct pH=7.4 [4, 8]: −1.66
fn (%) [5, 9]: 100%

O [Water]
Brain Equilibration t1/2, Calculated ([6]; plasma): 0.81 min
BBB PcS [1]: 0.029 mL/s/g
Brain Equilibration t1/2, Measured [1]: 1 min
Kin Underestimate (linear regression vs two compartment model) [1]: 54%
Log Pc [1]: −3.54
Log PoS [1]: −1.54
Pc [1]: 287 ×10⁻⁶ cm/s
PcS [1]: 0.029 mL/s/g
PoS [1]: 0.0287 mL/s/g
Log Po [1]: −3.54
Po [1]: 0.000287 cm/s
fu,.p ([2]; rat in vivo measurements): 1.00
Log Poct [4, 8]: −0.59
Log Doct pH=7.4 [4, 8]: −0.59

CC(C)(C)OC(=O)CCCc1ccc(N(CCCl)CCCl)cc1 [t-butyl chlorambucil]
Maximal flow—90% extraction, PcS/2.3 [6]: 14.0 mL/s/g
Brain Extraction (%) [1]: 24%
Log Pc [1]: −0.49
Log PoS [1]: 1.51
Pc [1]: 321000 ×10⁻⁶ cm/s
PcS [1]: 32.1 mL/s/g
PoS [1]: 32.1 mL/s/g
Log Po [1]: −0.49
Po [1]: 0.32 cm/s
fu,.p ([2]; rat in vivo measurements): 2.0E−03
Log Poct [4, 8]: 5.24
Log Poct ([4]; ref Hansch et al. [123], Avdeef [46] or other sources, listed as t-butyl-chlorambucil): 5.2
Log Doct pH=7.4 [4, 8]: 5.24
fn (%) [5, 9]: 100%

Erythrosine B
Brain Kin [6]: 6.53e-06 mL/s/g
Extraction (unbound) [6]: 2.7%
Brain vascular extraction (total) [6]: 0.027%
Log Pc [1]: −5.19
Log PoS [1]: 3.92
Pc [1]: 6.53 ×10⁻⁶ cm/s
PcS [1]: 0.00065 mL/s/g
Log Po [1]: 1.92
Po [1]: 83.48 cm/s
fu,.p ([2]; rat): 0.01
Log Doct pH=7.4 [4]: −0.15
fn (%) [5, 9]: 7.8E−06%
